{"source": "ChEMBL document CHEMBL5291721", "about": "“A preclinical secondary pharmacology resource illuminates target-adverse drug reaction associations of marketed drugs” (Nat Commun, 2023); further: assay procedure not described here", "key": {"Acetylcholinesterase": {"molecular_target": "Acetylcholinesterase (Homo sapiens, UniProt P22303)", "sequence (P22303 whole entry)": "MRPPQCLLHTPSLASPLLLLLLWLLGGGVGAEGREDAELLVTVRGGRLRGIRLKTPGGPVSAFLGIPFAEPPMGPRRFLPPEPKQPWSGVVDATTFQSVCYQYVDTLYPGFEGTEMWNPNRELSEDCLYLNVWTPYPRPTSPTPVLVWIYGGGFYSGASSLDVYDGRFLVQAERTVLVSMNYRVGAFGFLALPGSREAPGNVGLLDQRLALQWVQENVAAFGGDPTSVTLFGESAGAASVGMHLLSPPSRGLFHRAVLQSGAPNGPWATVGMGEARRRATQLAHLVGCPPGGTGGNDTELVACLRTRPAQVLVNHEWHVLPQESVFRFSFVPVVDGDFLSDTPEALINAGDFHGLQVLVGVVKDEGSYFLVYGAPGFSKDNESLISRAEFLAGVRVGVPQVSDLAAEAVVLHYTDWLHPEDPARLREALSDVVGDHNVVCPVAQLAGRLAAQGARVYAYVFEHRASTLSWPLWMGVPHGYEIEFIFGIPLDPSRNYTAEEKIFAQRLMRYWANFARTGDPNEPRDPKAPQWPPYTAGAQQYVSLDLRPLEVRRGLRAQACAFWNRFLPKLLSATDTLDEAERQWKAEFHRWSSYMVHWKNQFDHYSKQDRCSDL", "format": "functional"}, "Substance-K receptor": {"molecular_target": "T1, Substance-K receptor (Homo sapiens, UniProt P21452)", "T1 sequence (P21452 whole entry)": "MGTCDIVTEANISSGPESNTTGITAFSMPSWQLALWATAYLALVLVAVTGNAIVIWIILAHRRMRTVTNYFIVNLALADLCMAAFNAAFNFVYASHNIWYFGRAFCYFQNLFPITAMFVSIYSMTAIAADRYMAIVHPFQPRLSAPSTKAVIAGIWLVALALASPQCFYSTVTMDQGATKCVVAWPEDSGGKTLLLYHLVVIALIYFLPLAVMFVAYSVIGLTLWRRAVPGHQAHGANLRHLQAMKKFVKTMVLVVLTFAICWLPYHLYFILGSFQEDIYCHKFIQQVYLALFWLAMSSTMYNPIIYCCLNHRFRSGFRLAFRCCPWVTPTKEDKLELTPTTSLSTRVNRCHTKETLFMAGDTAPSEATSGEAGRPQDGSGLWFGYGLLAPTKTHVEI"}, "[1]": {"molecular_target": "T2, Muscarinic acetylcholine receptor M2 (Homo sapiens, UniProt P08172)", "T2 sequence (P08172 whole entry)": "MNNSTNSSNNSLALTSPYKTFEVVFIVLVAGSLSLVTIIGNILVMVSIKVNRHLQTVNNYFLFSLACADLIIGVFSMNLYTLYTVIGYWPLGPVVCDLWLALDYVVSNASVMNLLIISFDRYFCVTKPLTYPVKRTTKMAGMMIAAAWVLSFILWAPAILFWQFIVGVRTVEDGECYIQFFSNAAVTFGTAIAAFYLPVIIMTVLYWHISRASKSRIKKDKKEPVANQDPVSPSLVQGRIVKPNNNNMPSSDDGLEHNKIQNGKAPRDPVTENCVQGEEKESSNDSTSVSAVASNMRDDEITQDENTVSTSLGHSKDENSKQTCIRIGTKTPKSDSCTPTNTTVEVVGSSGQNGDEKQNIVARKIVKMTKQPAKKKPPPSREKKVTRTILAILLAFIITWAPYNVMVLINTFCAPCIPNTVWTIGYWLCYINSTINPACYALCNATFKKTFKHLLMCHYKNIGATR"}, "D(1A) dopamine receptor": {"molecular_target": "D(1A) dopamine receptor (Homo sapiens, UniProt P21728)", "sequence (P21728 whole entry)": "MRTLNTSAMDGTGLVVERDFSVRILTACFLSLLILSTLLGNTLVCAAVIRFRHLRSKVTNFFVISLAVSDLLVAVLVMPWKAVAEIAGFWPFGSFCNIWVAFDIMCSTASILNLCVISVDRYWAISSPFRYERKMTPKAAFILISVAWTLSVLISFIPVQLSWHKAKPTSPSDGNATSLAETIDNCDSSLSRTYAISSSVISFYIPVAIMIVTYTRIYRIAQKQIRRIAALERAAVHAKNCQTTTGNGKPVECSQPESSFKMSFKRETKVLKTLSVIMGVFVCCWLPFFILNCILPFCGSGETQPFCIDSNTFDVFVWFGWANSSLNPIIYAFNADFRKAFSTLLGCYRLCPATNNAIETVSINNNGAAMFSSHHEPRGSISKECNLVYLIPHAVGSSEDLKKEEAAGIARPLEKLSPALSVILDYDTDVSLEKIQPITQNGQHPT"}, "Histamine H1 receptor": {"molecular_target": "Histamine H1 receptor (Homo sapiens, UniProt P35367)", "sequence (P35367 whole entry)": "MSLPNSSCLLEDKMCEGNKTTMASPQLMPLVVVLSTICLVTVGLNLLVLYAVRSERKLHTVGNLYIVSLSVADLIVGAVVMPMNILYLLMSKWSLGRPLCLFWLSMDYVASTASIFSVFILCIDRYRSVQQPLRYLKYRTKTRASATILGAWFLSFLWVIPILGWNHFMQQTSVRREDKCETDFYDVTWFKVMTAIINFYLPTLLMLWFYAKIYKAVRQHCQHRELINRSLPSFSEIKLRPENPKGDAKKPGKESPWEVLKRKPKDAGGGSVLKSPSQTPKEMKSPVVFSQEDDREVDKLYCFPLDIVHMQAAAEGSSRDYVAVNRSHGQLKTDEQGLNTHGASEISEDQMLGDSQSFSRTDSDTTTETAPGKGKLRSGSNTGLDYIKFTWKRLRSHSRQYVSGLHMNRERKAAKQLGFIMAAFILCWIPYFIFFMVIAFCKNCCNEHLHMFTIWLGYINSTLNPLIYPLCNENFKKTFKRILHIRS", "format": "functional, cell-based"}, "[2]": {"molecular_target": "T3, Nuclear receptor subfamily 1 group I member 3 (Homo sapiens, UniProt Q14994)", "T3 sequence (Q14994 whole entry)": "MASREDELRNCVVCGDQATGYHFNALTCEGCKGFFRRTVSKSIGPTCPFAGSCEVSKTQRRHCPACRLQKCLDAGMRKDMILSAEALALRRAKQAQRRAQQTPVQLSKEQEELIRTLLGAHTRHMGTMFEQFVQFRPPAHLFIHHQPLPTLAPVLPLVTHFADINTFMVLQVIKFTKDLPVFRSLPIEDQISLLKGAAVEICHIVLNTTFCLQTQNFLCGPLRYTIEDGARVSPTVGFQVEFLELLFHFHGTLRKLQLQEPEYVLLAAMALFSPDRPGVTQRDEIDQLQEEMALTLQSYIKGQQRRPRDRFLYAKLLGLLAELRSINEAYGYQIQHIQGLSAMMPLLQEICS", "format": "functional"}, "[3]": {"molecular_target": "T4, Retinoic acid receptor alpha (Homo sapiens, UniProt P10276)", "T4 sequence (P10276 whole entry)": "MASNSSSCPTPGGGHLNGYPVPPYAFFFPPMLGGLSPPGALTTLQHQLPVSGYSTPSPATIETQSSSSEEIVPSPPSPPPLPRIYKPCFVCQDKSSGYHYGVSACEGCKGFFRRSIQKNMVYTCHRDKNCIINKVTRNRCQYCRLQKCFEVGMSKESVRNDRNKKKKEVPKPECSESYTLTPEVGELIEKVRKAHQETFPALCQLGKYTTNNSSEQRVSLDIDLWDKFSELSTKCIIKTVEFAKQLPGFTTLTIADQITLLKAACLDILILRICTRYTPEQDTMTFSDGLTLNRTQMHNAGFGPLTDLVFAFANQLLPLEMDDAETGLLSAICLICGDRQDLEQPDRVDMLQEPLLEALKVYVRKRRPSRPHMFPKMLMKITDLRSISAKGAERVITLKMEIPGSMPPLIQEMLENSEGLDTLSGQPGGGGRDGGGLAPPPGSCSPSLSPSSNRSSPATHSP", "format": "functional, cell-based"}, "[4]": {"molecular_target": "T5, Retinoic acid receptor beta (Homo sapiens, UniProt P10826)", "T5 sequence (P10826 whole entry)": "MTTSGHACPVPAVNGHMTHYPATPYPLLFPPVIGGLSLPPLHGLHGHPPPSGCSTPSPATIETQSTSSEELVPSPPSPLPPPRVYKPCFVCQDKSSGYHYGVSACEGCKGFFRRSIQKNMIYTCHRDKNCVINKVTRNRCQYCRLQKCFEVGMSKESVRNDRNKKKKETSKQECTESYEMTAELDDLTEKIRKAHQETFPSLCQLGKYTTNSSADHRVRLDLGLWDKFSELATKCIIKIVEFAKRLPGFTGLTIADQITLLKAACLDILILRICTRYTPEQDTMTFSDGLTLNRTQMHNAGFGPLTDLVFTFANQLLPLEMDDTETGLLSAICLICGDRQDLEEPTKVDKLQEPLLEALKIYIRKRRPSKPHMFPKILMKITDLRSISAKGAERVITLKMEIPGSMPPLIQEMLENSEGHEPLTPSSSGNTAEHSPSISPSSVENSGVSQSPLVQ", "format": "functional, cell-based"}, "[5]": {"molecular_target": "T6, Retinoic acid receptor gamma (Homo sapiens, UniProt P13631)", "T6 sequence (P13631 whole entry)": "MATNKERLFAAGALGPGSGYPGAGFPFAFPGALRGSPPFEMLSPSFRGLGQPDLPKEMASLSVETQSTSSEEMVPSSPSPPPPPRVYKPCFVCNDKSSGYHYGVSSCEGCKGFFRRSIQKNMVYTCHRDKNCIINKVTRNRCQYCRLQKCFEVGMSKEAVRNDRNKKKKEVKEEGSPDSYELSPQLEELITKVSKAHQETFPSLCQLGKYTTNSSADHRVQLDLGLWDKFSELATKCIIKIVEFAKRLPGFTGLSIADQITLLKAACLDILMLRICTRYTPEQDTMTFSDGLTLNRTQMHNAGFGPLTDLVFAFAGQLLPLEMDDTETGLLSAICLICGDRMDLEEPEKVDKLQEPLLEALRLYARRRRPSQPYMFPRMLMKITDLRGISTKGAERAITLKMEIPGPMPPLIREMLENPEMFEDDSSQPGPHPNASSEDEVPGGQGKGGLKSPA", "format": "functional, cell-based"}, "[6]": {"molecular_target": "T6, Retinoic acid receptor gamma", "format": "functional, cell-based", "remark": "listed apart in the source"}}, "data": [{"smiles": "CO/N=C(\\C(=O)N[C@@H]1C(=O)N2C(C(=O)[O-])=C(C[N+]3(C)CCCC3)CS[C@H]12)c1csc(N)n1", "values": [{"measurement": "AC50", "setting": "Acetylcholinesterase", "result": "> 300", "unit": "µM"}]}, {"smiles": "CCOC(=O)[C@H](CCc1ccccc1)N[C@@H](C)C(=O)N1CCC[C@H]1C(=O)O", "values": [{"measurement": "AC50", "setting": "Substance-K receptor", "result": "> 10", "unit": "µM"}]}, {"smiles": "Nc1nc(N)c2nc(-c3ccccc3)c(N)nc2n1", "values": [{"measurement": "AC50", "setting": "Substance-K receptor", "result": "> 10", "unit": "µM"}, {"measurement": "AC50", "setting": "[1]", "result": "> 30", "unit": "µM"}, {"measurement": "AC50", "setting": "D(1A) dopamine receptor", "result": "> 30", "unit": "µM"}]}, {"smiles": "CC(=O)c1ccc2c(c1)N(CCCN1CCN(CCO)CC1)c1ccccc1S2", "note": "[ACETOPHENAZINE]", "values": [{"measurement": "AC50", "setting": "D(1A) dopamine receptor", "result": 0.1, "unit": "µM"}]}, {"smiles": "Oc1ncnc2[nH]ncc12", "note": "[ALLOPURINOL]", "values": [{"measurement": "AC50", "setting": "[1]", "result": "> 30", "unit": "µM"}, {"measurement": "AC50", "setting": "D(1A) dopamine receptor", "result": "> 30", "unit": "µM"}]}, {"smiles": "COC(=O)[C@@H]1CC2=CC(=O)CC[C@]2(C)[C@@]23O[C@@H]2C[C@@]2(C)[C@@H](CC[C@@]24CCC(=O)O4)[C@H]13", "note": "[EPLERENONE]", "values": [{"measurement": "AC50", "setting": "Histamine H1 receptor", "result": "> 30", "unit": "µM"}, {"measurement": "AC50", "setting": "Acetylcholinesterase", "result": "> 30", "unit": "µM"}]}, {"smiles": "NC(N)=Nc1nc(CSCCC(N)=NS(N)(=O)=O)cs1", "note": "[FAMOTIDINE]", "values": [{"measurement": "AC50", "setting": "Substance-K receptor", "result": "> 10", "unit": "µM"}]}, {"smiles": "CC(C)C(=O)Nc1ccc([N+](=O)[O-])c(C(F)(F)F)c1", "note": "[FLUTAMIDE]", "values": [{"measurement": "AC50", "setting": "[1]", "result": "> 30", "unit": "µM"}, {"measurement": "AC50", "setting": "D(1A) dopamine receptor", "result": "> 30", "unit": "µM"}]}, {"smiles": "COc1ccc2c(c1)C(=O)N(CCc1ccc(S(=O)(=O)NC(=O)NC3CCCCC3)cc1)C(=O)C2(C)C", "note": "[GLIQUIDONE]", "values": [{"measurement": "AC50", "setting": "[2]", "result": 4.8, "unit": "µM"}, {"measurement": "AC50", "setting": "[3]", "result": "> 30", "unit": "µM"}, {"measurement": "AC50", "setting": "[4]", "result": "> 30", "unit": "µM"}, {"measurement": "AC50", "setting": "[5]", "result": "> 30", "unit": "µM"}, {"measurement": "AC50", "setting": "[6]", "result": 2600, "unit": "nM"}]}, {"smiles": "NS(=O)(=O)c1cc2c(cc1Cl)NCNS2(=O)=O", "note": "[HYDROCHLOROTHIAZIDE]", "values": [{"measurement": "AC50", "setting": "Substance-K receptor", "result": "> 10", "unit": "µM"}]}, {"smiles": "CC(C)Cc1ccc(CC(=O)O)cc1", "note": "[IBUFENAC]", "values": [{"measurement": "AC50", "setting": "Acetylcholinesterase", "result": "> 30", "unit": "µM"}]}, {"smiles": "CC(C)NNC(=O)c1ccncc1", "note": "[IPRONIAZID]", "values": [{"measurement": "AC50", "setting": "Acetylcholinesterase", "result": "> 30", "unit": "µM"}]}, {"smiles": "CC(C(=O)O)c1ccc(N2CC=CC2)c(Cl)c1", "note": "(configuration not stated) [PIRPROFEN]", "values": [{"measurement": "AC50", "setting": "Histamine H1 receptor", "result": "> 30", "unit": "µM"}]}, {"smiles": "NC(=O)c1cnccn1", "note": "[PYRAZINAMIDE]", "values": [{"measurement": "AC50", "setting": "[1]", "result": "> 30", "unit": "µM"}, {"measurement": "AC50", "setting": "D(1A) dopamine receptor", "result": "> 30", "unit": "µM"}]}, {"smiles": "Cc1ccc(C(=O)c2cc(O)c(O)c([N+](=O)[O-])c2)cc1", "note": "[TOLCAPONE]", "values": [{"measurement": "AC50", "setting": "[2]", "result": 13, "unit": "µM"}]}, {"smiles": "O=C(CCCCCCC(=O)Nc1ccccc1)NO", "note": "[VORINOSTAT]", "values": [{"measurement": "AC50", "setting": "Histamine H1 receptor", "result": "> 30", "unit": "µM"}, {"measurement": "AC50", "setting": "Substance-K receptor", "result": "> 10", "unit": "µM"}]}]}
